In test [1] the test system is P. aeruginosa (ATCC 10145). Nature of the test: Broad-spectrum activity against Gram-Negative bacteria (MIC). Format: cell-based. To be noted: Table 16, Gram-negative panel.
Test [2] relates to P. aeruginosa (ATCC BAA-1744). The description is as above. Format: cell-based. To be noted: Table 16, Gram-negative panel.
Test [3] concerns A. baumannii (ATCC BAA-1605). The description is as above. To be noted: Table 16, Gram-negative panel. Format: cell-based.
The test system of the next test is B. subtilis (ATCC-6633). As to the kind of experiment: Broad-spectrum activity against Gram-Positive bacteria (MIC). It counts as cell-based. On the set-up: unit not given here.
Test [4] deals with Enterococcus faecalis ATCC 51575. To be noted: E. faecalis ATCC 51575.
The test system of the next test is S. aureus ATCC 29213. Particulars: S. aureus ATCC 29213.
The test system of test [5] is Enterococcus faecalis ATCC 29212. To be noted: E. faecalis ATCC 29212.
For test [6], the system named is Enterococcus faecium ATCC 27270. Particulars: E. faecium ATCC 27270.
Test [7] concerns Pseudomonas aeruginosa (ATCC 27883). To be noted: P. aeruginosa ATCC 27883.
Test [8] deals with Methicillin-resistant Staphylococcus aureus MRSA (ATCC BAA-1556). To be noted: MRSA ATCC BAA-1556.
The next test has as its system E. coli (ATCC BAA-2452). As to the kind of experiment: Broad-spectrum activity against Gram-Negative bacteria (MIC). It counts as cell-based. To be noted: Table 16, Gram-negative panel.
Test [9] deals with Klebsiella pneumoniae (ATCC BAA-1705). To be noted: Table 16, Gram-negative panel.
In test [10] the test system is Klebsiella pneumoniae ATCC 13883. Particulars: Table 16, Gram-negative panel.
Test [11] deals with Streptococcus pneumoniae ATCC 51938. To be noted: S. pneumoniae ATCC 51938.
The subject of test [12] is Escherichia coli (ATCC 25922). To be noted: E. coli ATCC 25922.
In another test the test system is B. cereus (ATCC-13061). Nature of the test: Broad-spectrum activity against Gram-Positive bacteria (MIC). It counts as cell-based. On the set-up: unit not given here.
Test [13] relates to Enterococcus faecium ATCC 700221. Particulars: E. faecium ATCC 700221.
For test [14], the system named is Streptococcus pneumoniae ATCC 49619. Particulars: S. pneumoniae ATCC 49619.

Bounds are passed on as bounds.

In test [1], “c[arg-arg-arg-arg-NaI-trp-NaI] [IFX-141]” registered an MIC P. aeruginosa (ATCC 10145) of 25 µg/mL. Further, the MIC P. aeruginosa (ATCC BAA-1744) in test [2] amounted to 25 µg/mL. This substance registered an MIC A. baumannii (ATCC BAA-1605) in [3] of 12.5 µg/mL. The “Broad-spectrum activity B. subtilis (ATCC-6633)” value in the test on B. subtilis (ATCC-6633) worked out at 1.5. The “Broad-spectrum activity E. faecalis (ATCC 51575)” value in test [4] is 12.5. Further, the “MIC S. aureus ATCC 29213” value in the test on S. aureus ATCC 29213 came out at 3.1 µg/mL. Besides, the “Broad-spectrum activity E. faecalis (ATCC 29212)” value in test [5] is recorded as 6.2. Also, the “Broad-spectrum activity E. faecium (ATCC 27270)” value in test [6] was found to be 6.2. Also, the “MIC P. aeruginosa ATCC 27883” value in test [7] was found to be 32 µg/mL. The “MIC MRSA ATCC BAA-1556” value in test [8] was 6.2 µg/mL. Further, the MIC E. coli (ATCC BAA-2452) against E. coli (ATCC BAA-2452) was 25 µg/mL. This substance also yielded an MIC K. pneumonia (ATCC BAA-1705) in test [9] greater than 50 µg/mL. The MIC K. pneumonia (ATCC 13883) in test [10] was 50 µg/mL. Further, the “Broad-spectrum activity S. pneumoniae (ATCC 51938)” value in test [11] worked out at 12.5. For the same substance, in [12], the “MIC E. coli ATCC 25922” value came to 32 µg/mL. Also, the “Broad-spectrum activity B. cereus (ATCC-13061)” value with B. cereus (ATCC-13061) was 3.1. The “Broad-spectrum activity E. faecium (ATCC 700221)” value in test [13] came out at 6.2. Further, the “Broad-spectrum activity S. pneumoniae (ATCC 49619)” value in test [14] came out at 50.
In the case of “c[Arg-Arg-arg-Arg-Dip-Dip-Dip] [IFX-064]”, the MIC P. aeruginosa (ATCC 10145) in test [1] was found to be 25 µg/mL. In test [2], this substance gave an MIC P. aeruginosa (ATCC BAA-1744) of 25 µg/mL. The MIC A. baumannii (ATCC BAA-1605) in test [3] was 6.2 µg/mL. In the test with B. subtilis (ATCC-6633), the “Broad-spectrum activity B. subtilis (ATCC-6633)” value is recorded as 1.5. In addition, the “Broad-spectrum activity E. faecalis (ATCC 51575)” value in test [4] came out at 12.5. In addition, the “MIC S. aureus ATCC 29213” value against S. aureus ATCC 29213 is 3.1 µg/mL. In addition, the “Broad-spectrum activity E. faecalis (ATCC 29212)” value in [5] was 6.2. The “Broad-spectrum activity E. faecium (ATCC 27270)” value in [6] is 3.1. The “MIC P. aeruginosa ATCC 27883” value in [7] is 12.5 µg/mL. In addition, the “MIC MRSA ATCC BAA-1556” value in test [8] stood at 3.1 µg/mL. The same substance displayed an MIC E. coli (ATCC BAA-2452) in the test on E. coli (ATCC BAA-2452) of 6.2 µg/mL. The substance also came in with an MIC K. pneumonia (ATCC BAA-1705) in [9] of 12.5 µg/mL. Further, the MIC K. pneumonia (ATCC 13883) in [10] turned out to be 50 µg/mL. Also, the “Broad-spectrum activity S. pneumoniae (ATCC 51938)” value in test [11] was 25. Moreover, the “MIC E. coli ATCC 25922” value in test [12] worked out at 12.5 µg/mL. In the test on B. cereus (ATCC-13061), the “Broad-spectrum activity B. cereus (ATCC-13061)” value is listed as 3.1. Besides, the “Broad-spectrum activity E. faecium (ATCC 700221)” value in test [13] was 1.5. Further, in test [14], the “Broad-spectrum activity S. pneumoniae (ATCC 49619)” value is reported as 50.
In test [1], “c[Arg-Arg-Arg-Arg-Dip-trp-Dip] [IFX-089]” registered an MIC P. aeruginosa (ATCC 10145) of 25 µg/mL. Besides, the MIC P. aeruginosa (ATCC BAA-1744) in test [2] was 25 µg/mL. In test [3], the MIC A. baumannii (ATCC BAA-1605) is 12.5 µg/mL. The “Broad-spectrum activity B. subtilis (ATCC-6633)” value in the test on B. subtilis (ATCC-6633) was 3.1. Moreover, the “Broad-spectrum activity E. faecalis (ATCC 51575)” value in test [4] came to 12.5. Besides, in the test on S. aureus ATCC 29213, the “MIC S. aureus ATCC 29213” value is 3.1 µg/mL. Also, the “Broad-spectrum activity E. faecalis (ATCC 29212)” value in [5] is given as 12.5. In [6], the “Broad-spectrum activity E. faecium (ATCC 27270)” value is on record as 6.2. The “MIC P. aeruginosa ATCC 27883” value in [7] came out at 12.5 µg/mL. In addition, the “MIC MRSA ATCC BAA-1556” value in [8] is 3.1 µg/mL. Moreover, the MIC E. coli (ATCC BAA-2452) in the test with E. coli (ATCC BAA-2452) turned out to be 12.5 µg/mL. The MIC K. pneumonia (ATCC BAA-1705) in test [9] turned out to be 25 µg/mL. This substance also gave an MIC K. pneumonia (ATCC 13883) in test [10] of 50 µg/mL. Further, the “Broad-spectrum activity S. pneumoniae (ATCC 51938)” value in [11] was 25. Further, in test [12], the “MIC E. coli ATCC 25922” value stood at 12.5 µg/mL. For the same substance, the “Broad-spectrum activity B. cereus (ATCC-13061)” value with B. cereus (ATCC-13061) was 12.5. For the same substance, in [13], the “Broad-spectrum activity E. faecium (ATCC 700221)” value is 12.5. Besides, the “Broad-spectrum activity S. pneumoniae (ATCC 49619)” value in test [14] amounted to 50.
In test [1], “c[Arg-Arg-Arg-Arg-dip-trp-dip] [IFX-100]” came in with an MIC P. aeruginosa (ATCC 10145) of 50 µg/mL. The substance also had an MIC P. aeruginosa (ATCC BAA-1744) in test [2] of 25 µg/mL. In [3], this substance had an MIC A. baumannii (ATCC BAA-1605) of 12.5 µg/mL. In addition, the “Broad-spectrum activity B. subtilis (ATCC-6633)” value with B. subtilis (ATCC-6633) stood at 1.5. In addition, the “Broad-spectrum activity E. faecalis (ATCC 51575)” value in test [4] was 12.5. In addition, the “MIC S. aureus ATCC 29213” value with S. aureus ATCC 29213 stood at 1.5 µg/mL. Also, the “Broad-spectrum activity E. faecalis (ATCC 29212)” value in test [5] is reported as 6.2. The “Broad-spectrum activity E. faecium (ATCC 27270)” value in [6] is 3.1. In addition, the “MIC P. aeruginosa ATCC 27883” value in test [7] was 12.5 µg/mL. In [8], the “MIC MRSA ATCC BAA-1556” value was determined as 1.5 µg/mL. In the test with E. coli (ATCC BAA-2452), this substance returned an MIC E. coli (ATCC BAA-2452) of 25 µg/mL. This substance also came in with an MIC K. pneumonia (ATCC BAA-1705) in test [9] of 25 µg/mL. This substance came in with an MIC K. pneumonia (ATCC 13883) in test [10] greater than 50 µg/mL. Besides, in test [11], the “Broad-spectrum activity S. pneumoniae (ATCC 51938)” value turned out to be 12.5. Also, the “MIC E. coli ATCC 25922” value in test [12] was found to be 12.5 µg/mL. Further, the “Broad-spectrum activity B. cereus (ATCC-13061)” value with B. cereus (ATCC-13061) worked out at 3.1. Also, the “Broad-spectrum activity E. faecium (ATCC 700221)” value in test [13] was 6.2. In addition, the “Broad-spectrum activity S. pneumoniae (ATCC 49619)” value in [14] is reported as 25.

Values taken from patent US20220289794A1, “SYNTHETIC ANTIMICROBIAL PEPTIDES” (priority 2019, published 2022).
